Results on two molecules are retold here after patent publication US20250059203A1, “USE OF ARISTOLOXAZINE C HAVING ANTICANCER ACTIVITY” (KOREA INSTITUTE OF ORIENTAL MEDICINE, priority 2021, published 2025).

In experiment [1] the test system is HT1080 (fibrosarcoma). Kind of experiment: MTT assay, HT1080 cells. In kind it is cell-based, human. How it is done:
(§1) In order to evaluate the anticancer activity of aristoloxazine isolated in Example 1, the cytotoxic activity against 14 human cancer cell lines including SKMEL5 (melanoma), A431 (non-melanoma skin), PC3 (prostate), A549 (lung), HT1080 (fibrosarcoma), OVCAR3 (ovary), HCT116 (colon), AGS (stomach), HepG2 (liver), MCF7 (breast cancer), K562 (leukemia), U-87 (glioma), ACHN (renal adenocarcinoma) and Caki (clear cell kidney cancer) was evaluated.
(§2) Cells were seeded (1 to 2.5×10^3 cells per well) in 96-well plates and then allowed to settle overnight. Next, the cells were treated with different doses of the compound for 24 hours, 48 hours or 72 hours in a 37° C. CO2 incubator, and 20 μL of MTT ((4,5-dimethylthiazol-2-yl)-2,5-diphenyltetrazolium bromide reagent (Sigma-Aldrich, Inc., St. Louis, MO, USA) was added to each well. After 1 to 2 hours, the medium was discarded, and 100 μL of DMSO (dimethyl sulfoxide, VWR Life Science, Ohio, USA) was added, and then, absorbance was measured at 570 nm by using a Multiskan Skyhigh microplate spectrophotometer (Thermo Scientific, Singapore). 5-FU was used as a positive control. The extract in Table 2 was a 70% ethanol Asarum heterotropoides root extract obtained in the process of preparing the Asarum heterotropoides root fraction of Example 1-2.

In experiment [2] the test system is K562 (leukemia). Description: MTT assay, K562 cells. It counts as cell-based, human. The note with it: K562, 72 h. As for the experimental part:
as §1, §2

Experiment [3] has as its system OVCAR3 (ovarian cancer). Kind of experiment: MTT assay, OVCAR3 cells. It counts as cell-based. As to conditions: Homo sapiens, OVCAR-3, OVCAR3, 72 h. As for the experimental part: as §1, §2
For experiment [4], the system named is A549 (lung cancer). Description: MTT assay, A549 cells. It counts as cell-based, human. The note with it: A549, 72 h. How it is done: as §1, §2
In experiment [5] the test system is 14 human cancer cell lines. Kind of experiment: MTT assay, panel of all cancer cell lines tested. In kind it is cell-based. As to conditions: span over all cancer cell lines tested, read-out: IC50 values, cytotoxicity against all cells that were tested. How it is done: as §1, §2
Experiment [6] has as its system HepG2 (liver cancer). Kind of experiment: MTT assay, HepG2 cells. In kind it is cell-based. As to conditions: Homo sapiens, HepG2, 72 h. How it is done:
as §1, §2

The subject of experiment [7] is AGS (stomach cancer). Kind of experiment: MTT assay, AGS cells. In kind it is cell-based, human. The note with it: 72 h. As for the experimental part:
as §1, §2

Experiment [8] has as its system A431 (non-melanoma skin cancer). Kind of experiment: MTT assay, A431 cells. In kind it is cell-based, human. As for the experimental part: as §1, §2
Experiment [9] has as its system U-87 (glioma). Description: MTT assay, U-87 cells. It counts as cell-based, human. As to conditions: U-87, 72 h. How it is done:
as §1, §2

Experiment [10] relates to HCT116 (colon cancer). Description: MTT assay, HCT116 cells. It counts as cell-based, human. As for the experimental part:
as §1, §2

Experiment [11] relates to SKMEL5 (melanoma). Description: MTT assay, SKMEL5 cells. In kind it is cell-based, human. How it is done: as §1, §2
Experiment [12] deals with PC3 (prostate cancer). Description: MTT assay, PC3 cells. In kind it is cell-based. The note with it: Homo sapiens, PC-3, PC3, 72 h. As for the experimental part: as §1, §2
Experiment [13] relates to ACHN (renal adenocarcinoma). Kind of experiment: MTT assay, ACHN cells. It counts as cell-based, human. The note with it: 72 h. How it is done: as §1, §2
Experiment [14] relates to Caki (clear cell kidney cancer). Description: MTT assay, Caki cells. In kind it is cell-based, human. The note with it: 72 h. As for the experimental part: as §1, §2
The test system of experiment [15] is MCF7 (breast cancer). Kind of experiment: MTT assay, MCF7 cells. In kind it is cell-based. As to conditions: Homo sapiens, MCF7, 72 h. As for the experimental part: as §1, §2

On to `COc1cccc2c1[C@H](SCC(N)=O)c1noc(=O)c3cc4c(c-2c13)OCO4` [Aristoloxazine C], for which the IC50 is 143 ± 2.3 nM in [1] (Homo sapiens, HT-1080, HT1080, 72 h); 78.6 ± 2 nM in experiment [2] (Homo sapiens); 374 ± 12 nM in experiment [3]; 25.7 ± 0.7 nM in experiment [4] (Homo sapiens); 17.8 to 374 nM in experiment [5]; 149.2 ± 0.7 nM in experiment [6]. Moreover, the 50% inhibitory concentration (IC50) in [7] (Homo sapiens) is 22.1 ± 0.8 nM; in experiment [8] (Homo sapiens, A-431, A431, 72 h), 85.7 ± 2.5 nM; in experiment [9] (Homo sapiens, U-87 MG), 57.8 ± 5.5 nM; in experiment [10] (Homo sapiens, HCT-116, HCT116, 72 h), 29.3 ± 0.2 nM; in experiment [11] (Homo sapiens, SK-MEL-5, SKMEL5, 72 h) it was 72.1 ± 0.4 nM; in experiment [12], 84.3 ± 2 nM. Also, the values for the IC50 in experiment [13] (Homo sapiens), in experiment [14] (Homo sapiens) and in experiment [15] were 17.8 ± 0.1 nM, 65.4 ± 2.9 nM and 46.4 ± 2 nM, respectively.
For `O=c1[nH]cc(F)c(=O)[nH]1` [Compound 5-FU, 5-FU, reference compound], the half-inhibitory concentration (IC50) in experiment [1] (HT1080, 72 h) was found to be 4900 ± 100 nM; in [2], 6700 ± 200 nM; in experiment [4], 2400 ± 100 nM; in experiment [7], 3200 ± 100 nM; in [8] (A431, 72 h), 1000 ± 30 nM; in experiment [9], 9000 ± 200 nM. In addition, the IC50 worked out at 3500 ± 100 nM in experiment [10] (HCT116, 72 h); 8400 ± 700 nM in [11] (SKMEL5, 72 h); 9100 ± 2900 nM in experiment [13]; 9900 ± 200 nM in experiment [14].
